Where “and” joins values, the source holds several entries; their conditions need not be identical. Equal values may be shown once. Inconclusive results and toxic doses are left out. No stated cut-off is given here; in the data, active means T/C of 150% or more; inactive means T/C below 125%.
Tested on: L1210 leukemia ip in BDF1 mice, survival T/C
Experiment: NCI In Vivo Anticancer Drug Screen. Data for tumor model L1210 Leukemia (intraperitoneal) in B6D2F1 (BDF1) mice
Conditions: endpoint: mean survival time, higher = longer survival
Outline: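 Transplantable tumor model; survival measured in treated vs vehicle control mice. Value = treated/control.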

[1] = dose: 50.0 mg/kg/injection, schedule: Q01DX009 (ip), vehicle: Klucel (hydroxypropylcellulose) (HPC)
[2] = dose: 100.0 mg/kg/injection, schedule: Q01DX009 (ip), vehicle: Klucel (hydroxypropylcellulose) (HPC)
[3] = dose: 200.0 mg/kg/injection, schedule: Q01DX009 (ip), vehicle: Klucel (hydroxypropylcellulose) (HPC)
[4] = dose: 400.0 mg/kg/injection, schedule: Q01DX009 (ip), vehicle: Klucel (hydroxypropylcellulose) (HPC)
[5] = dose: 12.5 mg/kg/injection, schedule: Q04DX002 (ip), vehicle: Klucel (hydroxypropylcellulose) (HPC)
[6] = dose: 25.0 mg/kg/injection, schedule: Q04DX002 (ip), vehicle: Klucel (hydroxypropylcellulose) (HPC)
[7] = dose: 50.0 mg/kg/injection, schedule: Q04DX002 (ip), vehicle: Klucel (hydroxypropylcellulose) (HPC)
[8] = dose: 100.0 mg/kg/injection, schedule: Q04DX002 (ip), vehicle: Klucel (hydroxypropylcellulose) (HPC)
[9] = dose: 200.0 mg/kg/injection, schedule: Q04DX002 (ip), vehicle: Klucel (hydroxypropylcellulose) (HPC)
[10] = dose: 400.0 mg/kg/injection, schedule: Q04DX002 (ip), vehicle: Klucel (hydroxypropylcellulose) (HPC)

Measured: T/C

CCOC(=O)Cn1c2ccccc2c2cc3c(C)nccc3c(C)c21
inactive: dose: 4.69 mg/kg/injection, schedule: Q01DX009 (ip), vehicle: saline with Tween-80 93 % of control | dose: 9.37 mg/kg/injection, schedule: Q01DX009 (ip), vehicle: saline with Tween-80 96 % of control | dose: 9.37 mg/kg/injection, schedule: Q04DX003 (ip), vehicle: saline with Tween-80 96 % of control | dose: 18.75 mg/kg/injection, schedule: Q01DX009 (ip), vehicle: saline with Tween-80 95 % of control | dose: 18.75 mg/kg/injection, schedule: Q04DX003 (ip), vehicle: saline with Tween-80 105 % of control | dose: 37.5 mg/kg/injection, schedule: Q01DX009 (ip), vehicle: saline with Tween-80 95 % of control | dose: 37.5 mg/kg/injection, schedule: Q04DX003 (ip), vehicle: saline with Tween-80 96 % of control | dose: 75.0 mg/kg/injection, schedule: Q01DX009 (ip), vehicle: saline with Tween-80 103 % of control | dose: 75.0 mg/kg/injection, schedule: Q04DX003 (ip), vehicle: saline with Tween-80 105 % of control | dose: 150.0 mg/kg/injection, schedule: Q01DX009 (ip), vehicle: saline with Tween-80 97 % of control | dose: 150.0 mg/kg/injection, schedule: Q04DX003 (ip), vehicle: saline with Tween-80 113 % of control

CCOC(=O)C(Cc1ccccc1)N=NNc1nc[nH]c1C(N)=O (stereo not drawn)
inactive: dose: 375.0 mg/kg/injection, schedule: Q01DX001 (ip), vehicle: carboxymethylcellulose (CMC) 96 % of control | dose: 500.0 mg/kg/injection, schedule: Q01DX001 (ip), vehicle: carboxymethylcellulose (CMC) 106 % of control

COc1ccccc1-n1c(O)c(N=Nc2ccc(Cl)cc2)c(=O)n(-c2ccc(Br)cc2)c1=S
inactive: dose: 100.0 mg/kg/injection, schedule: Q01DX001 (ip), vehicle: Klucel (hydroxypropylcellulose) (HPC) 89 % of control | dose: 200.0 mg/kg/injection, schedule: Q01DX001 (ip), vehicle: Klucel (hydroxypropylcellulose) (HPC) 92 % of control

Nc1nc(N)c(CCCCc2ccccc2)c(N)n1
inactive: [1] 87 % of control | dose: 50.0 mg/kg/injection, schedule: Q01DX Z (ip), vehicle: carboxymethylcellulose (CMC) 95 % of control | [2] 95 % of control

COc1cccc(C(=NC(=O)c2ccccc2)c2ccccc2)c1
inactive: [2] 100 % of control | [3] 97 % of control | [4] 91 % of control

CC(=O)OC(C#N)c1cccc([N+](=O)[O-])c1 (stereo not drawn)
inactive: dose: 6.25 mg/kg/injection, schedule: Q04DX002 (ip), vehicle: Klucel (hydroxypropylcellulose) (HPC) 97 % of control | [5] 102 % of control | [6] 100 % of control and 92 % of control

O=C(O)C1C2C=CC(C3C=CC32)C1C(=O)O (stereo not drawn)
inactive: dose: 6.25 mg/kg/injection, schedule: Q01DX009 (ip), vehicle: saline 98 % of control | dose: 12.5 mg/kg/injection, schedule: Q01DX009 (ip), vehicle: saline 110 % of control | dose: 25.0 mg/kg/injection, schedule: Q01DX009 (ip), vehicle: saline 102 % of control and 115 % of control | dose: 50.0 mg/kg/injection, schedule: Q01DX009 (ip), vehicle: saline 96 % of control and 105 % of control | dose: 100.0 mg/kg/injection, schedule: Q01DX009 (ip), vehicle: saline 100 % of control | dose: 200.0 mg/kg/injection, schedule: Q01DX009 (ip), vehicle: saline 100 % of control | dose: 400.0 mg/kg/injection, schedule: Q01DX009 (ip), vehicle: saline 94 % of control

CC(C)N1CCC1C (stereo not drawn)
inactive: dose: 100.0 mg/kg/injection, schedule: Q04DX003 (ip), vehicle: acetone 96 % of control

C=CCN(CC=C)c1nc(Oc2ccccc2)nc(Oc2ccccc2)n1
inactive: dose: 25.6 mg/kg/injection, schedule: Q04DX002 (ip), vehicle: saline with Tween-80 104 % of control | dose: 64.0 mg/kg/injection, schedule: Q04DX002 (ip), vehicle: saline with Tween-80 101 % of control | dose: 100.0 mg/kg/injection, schedule: Q04DX003 (ip), vehicle: saline with Tween-80 89 % of control | dose: 160.0 mg/kg/injection, schedule: Q04DX002 (ip), vehicle: saline with Tween-80 93 % of control | dose: 200.0 mg/kg/injection, schedule: Q04DX003 (ip), vehicle: saline with Tween-80 92 % of control | dose: 400.0 mg/kg/injection, schedule: Q04DX002 (ip), vehicle: saline with Tween-80 89 % of control | dose: 400.0 mg/kg/injection, schedule: Q04DX003 (ip), vehicle: saline with Tween-80 93 % of control

CCCOC(=O)N(C)c1ccccc1
inactive: dose: 75.0 mg/kg/injection, schedule: Q04DX002 (ip), vehicle: Klucel (hydroxypropylcellulose) (HPC) 101 % of control | dose: 150.0 mg/kg/injection, schedule: Q04DX002 (ip), vehicle: Klucel (hydroxypropylcellulose) (HPC) 101 % of control | dose: 300.0 mg/kg/injection, schedule: Q04DX002 (ip), vehicle: Klucel (hydroxypropylcellulose) (HPC) 101 % of control

O=[N+]([O-])c1ccc(N2N=NC3CC/C(=C\c4cccc([N+](=O)[O-])c4)C32N2CCOCC2)cc1 (stereo not drawn)
inactive: [6] 104 % of control | [7] 101 % of control | [8] 88 % of control

OC1C(O)C(O)C2(CO2)C(O)C1O (stereo not drawn)
inactive: dose: 600.0 mg/kg/injection, schedule: Q01DX Z (ip), vehicle: saline 112 % of control

CC1=CC(C)C(=O)N(C)C(C)=C1 (stereo not drawn)
inactive: dose: 75.0 mg/kg/injection, schedule: Q01DX001 (ip), vehicle: carboxymethylcellulose (CMC) 97 % of control | dose: 150.0 mg/kg/injection, schedule: Q01DX001 (ip), vehicle: carboxymethylcellulose (CMC) 91 % of control | dose: 300.0 mg/kg/injection, schedule: Q01DX001 (ip), vehicle: carboxymethylcellulose (CMC) 92 % of control

CN(CCNC(=O)c1ccc(Cl)cc1)c1ccccc1
inactive: [8] 96 % of control | [9] 96 % of control | [10] 86 % of control

Cc1ccc(S(=O)(=O)OC2CCC(C(C)(C)C)CC2Cl)cc1 (stereo not drawn)
inactive: [2] 98 % of control | dose: 100.0 mg/kg/injection, schedule: Q04DX003 (ip), vehicle: saline 98 % of control | [3] 108 % of control | dose: 200.0 mg/kg/injection, schedule: Q04DX003 (ip), vehicle: saline 98 % of control | [4] 98 % of control | dose: 400.0 mg/kg/injection, schedule: Q04DX003 (ip), vehicle: saline 94 % of control

CCCNC(=O)Oc1cccc(C)c1
inactive: [8] 100 % of control | [9] 106 % of control | [10] 110 % of control

CCC[N+](C)(C)C1CCCCC1
inactive: dose: 75.0 mg/kg/injection, schedule: Q01DX001 (ip), vehicle: saline 96 % of control and 94 % of control

ClCc1ccccc1CCl
inactive: dose: 5.0 mg/kg/injection, schedule: Q01DX015 (ip), vehicle: carboxymethylcellulose (CMC) 90 % of control | dose: 10.0 mg/kg/injection, schedule: Q01DX015 (ip), vehicle: carboxymethylcellulose (CMC) 87 % of control

O=C(C/C(=N/O)c1ccccc1)c1ccccc1
inactive: dose: 50.0 mg/kg/injection, schedule: Q01DX001 (ip), vehicle: saline 98 % of control | dose: 100.0 mg/kg/injection, schedule: Q01DX001 (ip), vehicle: saline 102 % of control | dose: 200.0 mg/kg/injection, schedule: Q01DX001 (ip), vehicle: saline 96 % of control | dose: 400.0 mg/kg/injection, schedule: Q01DX001 (ip), vehicle: saline 90 % of control

O/N=C/c1cccn1-c1cccc2c(-n3cccc3/C=N/O)cccc12
inactive: [6] 101 % of control | [7] 93 % of control | [8] 97 % of control

O=Cc1cc2cccnc2s1
inactive: dose: 100.0 mg/kg/injection, schedule: Q04DX003 (ip), vehicle: Klucel (hydroxypropylcellulose) (HPC) 103 % of control | dose: 200.0 mg/kg/injection, schedule: Q04DX003 (ip), vehicle: Klucel (hydroxypropylcellulose) (HPC) 100 % of control | dose: 400.0 mg/kg/injection, schedule: Q04DX003 (ip), vehicle: Klucel (hydroxypropylcellulose) (HPC) 100 % of control

c1cnc[c]([Hg][c]2cccnc2)c1
inactive: dose: 12.5 mg/kg/injection, schedule: Q01DX009 (ip), vehicle: Klucel (hydroxypropylcellulose) (HPC) 91 % of control | [5] 98 % of control | dose: 25.0 mg/kg/injection, schedule: Q01DX009 (ip), vehicle: Klucel (hydroxypropylcellulose) (HPC) 88 % of control | [6] 98 % of control | [1] 95 % of control | [7] 103 % of control

Cc1ccccc1-c1nc2ncnc(N)c2[nH]1
inactive: dose: 31.8 mg/kg/injection, schedule: Q01DX001 (ip), vehicle: Klucel (hydroxypropylcellulose) (HPC) 104 % of control | dose: 62.5 mg/kg/injection, schedule: Q01DX001 (ip), vehicle: Klucel (hydroxypropylcellulose) (HPC) 109 % of control | dose: 125.0 mg/kg/injection, schedule: Q01DX001 (ip), vehicle: Klucel (hydroxypropylcellulose) (HPC) 101 % of control

— PubChem BioAssay AID248 (DTP/NCI, 2004)
